Entries after “also recorded” stand apart in the source; their conditions may differ.
Experiments:
HL-60 cells [1] = test: Lysosomal inhibition assay with small molecule prodrugs; format: cell-based; conditions: HL-60, compared with untreated
Method: Assays to assess the effect of lysosomal activity on prodrugs were performed as follows: HL-60 cells were plated into 96 well plates at a concentration of 2.5×10^5 cells/mL in 180 μL media. Cells were treated with 10 μL of a stock of NH4Cl in PBS (to obtain an in-plate concentration of 3 or 30 mM), 10 μL of a dilution of a DMSO stock of E64d in PBS (to obtain an in-plate concentration of 30 μM), PBS only, or a dilution of DMSO in PBS. Cells were incubated for 30 min. Following this, 10 μL of a stock of test compound made by dilution of a DMSO stock into media was added. DMSO was present in-plate at a maximum of 0.2%. Cells were incubated overnight for 16 h. Following incubation, media was replaced with media containing CellTiter-Blue (Promega) in 1:4 dilution and the plates were incubated for 6 h. The fluorescence of the plates was recorded (excitation 555 nm, emission 585 nm, MiniMax i3x Reader, Molecular Devices). Cell viability was calculated by division of the fluorescence intensity of treated wells by that of the calculated average fluorescence intensity of the relevant negative control wells. Values and reported error bars represent the mean and standard error of the mean of three triplicate repeats for each concentration tested.

MOLM-13 = test: Viability assay with small molecule prodrugs, Trypan Blue exclusion, MOLM-13; format: cell-based; conditions: MOLM-13
Method: (§1) For assays assessing cytotoxicity of β-lapachone versus small molecule dipeptide prodrugs, suspension cells were plated into 24 well plates at a density of 2.5×10^5 cells/mL in 240 μL. Serial dilutions of compound were made up in PBS. 60 μL of each stock of either PBS, or compound in PBS was added to the cells to achieve the desired final concentration. After the specified incubation time, toxicity was assessed by counting of live cells using the Trypan Blue exclusion method with a Countess II Automated Cell Counter (ThermoFisher Scientific) according to the manufacturer's instructions. Cell viability was determined by division of average live cell number of treated wells by average live cell number for control wells treated with PBS only. Values recorded are the mean of three repeat wells, with error bars representing the standard error of the mean for each concentration tested. IC50 values were calculated using GraphPad Prism software.

HL-60 = test: Viability assay with small molecule prodrugs, Trypan Blue exclusion, HL-60; format: cell-based
Method: as §1

ovine blood [2] = test: Haemolysis in in vitro ovine blood model; format: cell-based, sheep; conditions: compared with β-lapachone 1
[3] = tested on: range of cancer cell lines, including leukaemia, breast, colon, and cervical cancer; test: Toxicity to a range of cancer cell lines (panel); format: cell-based; conditions: relative to parent drug 1
Method: Assays assessing cytotoxicity of β-lapachone and derivatives were performed by CellTiter-Blue assay (Promega) according to the manufacturer's instructions. Briefly, adherent cancer-cell lines were plated at 20,000 cells/well in 96 well plates or suspension cell lines were plated at a concentration of 2×10^5 cells/mL in 24 well plates. Compound stocks in media were made by dilution of DMSO stocks containing the compound of interest to obtain a final in-plate DMSO concentration of only 0.1%. Incubation was performed for 48 h. Following incubation, media was replaced with media containing CellTiter-Blue (Promega) in 1:10 dilution and the plates were incubated for 1.5-4 h. The fluorescence of the plates was recorded (excitation 555 nm, emission 585 nm, […] Reader, Molecular Devices). Cell viability was calculated by division of the fluorescence intensity of treated wells by that of the calculated average fluorescence intensity of replicate negative control wells containing cells with 0.1% DMSO only. Values and reported error bars represent the mean and standard error of the mean of three triplicate repeats for each concentration tested.

HL-60 cells [4] = test: N-acetyl cysteine cytotoxicity assay; format: cell-based; conditions: HL-60
Method: For assays involving cytotoxicity of β-lapachone derivatives with and without antioxidant N—-acetyl cysteine, HL-60 cells were plated into 24 well plates at a concentration of 2.5×10^5 cells/mL in 450 μL. To each well was then added 25 μL of drug diluted in PBS to obtain the correct in-plate drug concentration, and 25 μL of PBS or a stock of N-acetyl cysteine at 12 mM in PBS. DMSO was maintained at an in-plate concentration of 0.1%. After 96 h incubation, toxicity was assessed by counting of live cells using the Trypan Blue exclusion method with a Countess II Automated Cell Counter (ThermoFisher Scientific) according to the manufacturer's instructions. Cell viability was determined by division of average live cell number of treated wells by average live cell number for control wells treated with 0.1% DMSO. […] Values recorded are the mean of three repeat wells, with error bars representing the standard error of the mean for each concentration tested.

ovine blood [5] = test: Methaemoglobin analysis in sheep's blood; format: cell-based; conditions: in vitro ovine blood model, 1 h incubation, absorbance at 630 nm
Method: Defibrinated Oxoid™ sheep's blood (ThermoScientific) was diluted to a 5% v/v suspension in PBS pH 7.4. In a 96 well microtiter plate, 150 μL of blood suspension was added to 50 μL of serially diluted compound in PBS containing a 4× stock of each compound of interest. Serial dilution of compounds from DMSO stocks into PBS was performed to achieve an in-plate DMSO concentration of 0.1%. PBS buffer alone was used as a negative control. Three replicates were performed for each compound concentration analysed. The plate was incubated for the specified time at 37° C. The plate was then centrifuged at 3,500 rpm for 5 min. The supernatant was removed and cells lysed by resuspension in 100 μL of a solution of Triton-X-100 (1%) in PBS. Following this 80 μL of lysed cell contents were transferred to a second microtiter plate for UV measurement. To determine methaemoglobin increase, UV absorbance was measured immediately at 630 nm (MiniMax i3x Imager, Molecular Devices). Methaemoglobin increase was determined by (A630−A^0630)/(A^0630)×100, where A630 is the absorbance of the test well at 630 nm, and A^0630 is the absorbance of the negative control at 630 nm. Mean values and standard error of the mean of three independent replicates are plotted.

HL-60 cells [6] = test: Cellular ROS detection with DCFH-DA; format: cell-based; conditions: HL-60, 2′,7′-dichlorodihydrofluorescein diacetate
Method: To determine ROS generation by compounds in leukaemia cells, HL-60 cells were washed with PBS, then incubated in serum free media (10 mL of 1.6×10^6/mL cell concentration) with 2,7-dichlorofluorescin diacetate (DCFH-DA) at 20 μM for 30 min at 37° C. Following this, the cells were washed with PBS and resuspended in Fluorbrite-DMEM media (ThermoFisher) (10 mL). 450 μL of the cell mixture was seeded into wells of a clear flat bottomed 12 well plate, to which 50 μL of a 10× stock of the compounds in media had been already added, to achieve a final compound concentration of 50 μM. The 10× media stocks were made by 100-fold dilution of DMSO compound stocks, to ensure a final in-plate DMSO concentration of 0.1%. DMSO 0.1% only was used as a negative control. H2O2 was used as a positive control, for which 10 μL of a 30% aqueous solution was dissolved into 1 mL DMSO, then diluted 100-fold into media for plating, to give a final H2O2 concentration of […]. After plating the cells were immediately incubated at 37° C. in the dark for 15 min before the fluorescence of the wells (excitation 485 nm, emission 535 nm) was recorded (MiniMax i3x Imager, Molecular Devices). Values recorded are the mean of three repeat wells, with error bars representing the standard error of the mean.

[7] = In vitro redox-cycling ability, phenol red/horseradish peroxidase assay; format: biochemical; conditions: HRP/phenol-red reporter assay, absorbance at 610 nm; up to 25 μM
Method: In vitro redox cycling capability of compounds was assessed by phenol red/horseradish peroxidase (HRP) assay by adaption of a previously described protocol (Assay Drug Dev. Technol., 2008, 6, 505-518). Briefly, stocks were prepared as follows: (1) DTT to a concentration of 2.4 μM in PBS pH 7.4 buffer; (2) compound stocks in PBS pH 7.4 buffer to 3× the desired concentration by 1000× dilution of DMSO stocks; (3) a stock of phenol-red-HRP detection reagent containing 300 μg/mL phenol red and 180 μg/mL HRP enzyme in PBS pH 7.4 buffer; (4) a stock of 1 M NaOH in water; (5) a stock of 100 μM H2O2 in PBS prepared by addition of a 30% solution of H2O2 in water into 1000 μL of PBS. Into each well of a 96 well clear flat-bottomed plate was then added 40 μL of compound stock in PBS followed by 40 μL of DTT stock, followed immediately by 40 μL of phenol-red-HRP reagent. A positive control with 100 μM H2O2 added in place of compound was included. The plate was incubated in the dark at room temperature for 15 min. Following this 20 μL of 1 M NaOH was added to each well to terminate the reaction. Absorbance was immediately measured at 610 nm (MiniMax i3x Imager, Molecular Devices). Absorbance of treated wells was normalised to control wells treated with PBS only (zero redox cycling). All readings were performed in triplicate and error bars display standard error of the mean.

| IC50 relative to 1 (MOLM-13) [fold] | IC50 relative to 1 (HL-60) [fold] | methaemoglobin formation (ovine blood [5]) | Compound | toxicity after lysosomal deacidification (NH4Cl) or inhibition (E64d) (HL-60 cells [1]) | haemolysis of haemoglobin (ovine blood [2]) | decrease in toxicity [3] [fold] | change of IC50 upon NAC addition (HL-60 cells [4]) | ROS generation (HL-60 cells [6]) | redox activity (in vitro redox-cycling capability) [7] |
| --- | --- | --- | --- | --- | --- | --- | --- | --- | --- |
| 10 | 10 | – | CC(C)[C@H](NC(=O)OCc1ccccc1)C(=O)N[C@@H](CCCNC(N)=O)C(=O)Nc1ccc(CC2(O)C(=O)C3=C(OC(C)(C)CC3)c3ccccc32)cc1 (stereo partly drawn) [Compound 26, Cbz-Val-Cit-para-aminobenzyl β-lapa-ketol] | less toxic | – | – | – | – | – |
| – | – | did not occur | CC1(C)CCC2=C(O1)c1ccccc1C(O)(Cc1ccccc1)C2=O (stereo not drawn) [Compound 24, 6-benzyl-6-hydroxy-2,2-dimethyl-2,3,4,6-tetrahydro-5H-benzo[h]chromen-5-one] | – | lower | > 20 | unchanged | did not generate detectable ROS | no measurable redox activity; also recorded: non-redox active |
| – | – | did not occur | CC1(C)CCc2c3c(c4ccccc4c2O1)OCCO3 [Compound 25, 7,7-dimethyl-2,3,5,6-tetrahydro-1,4,8-trioxatriphenylene, reference compound] | – | lower | – | – | – | no measurable redox activity |

Source: patent publication US20250170252A1, “QUINONE PROTECTED FORMS AND CONJUGATES” (CAMBRIDGE ENTERPRISE LIMITED, priority 2022, published 2025)
